The source made the active and inactive calls. The calls are words filed in the database; no cut-off is given here.
Legend:
A-431 [1] = experiment: Induction of apoptosis in human A-431 cells assessed as chromatin condensation at 7.5 to 30 nM incubated for 48 hrs by Hoechst33342 staining based fluorescent microscopy; format: functional, cell-based; details: dose 7.5-30 nM
[2] = Induction of mitochondria membrane potential loss in human A-431 cells assessed as green fluorescence intensity at 15 nM incubated 48 hrs by JC-1 probe based flow cytometry analysis (reference value: 5.98%); format: functional
A-431 [3] = experiment: Antiproliferative activity against human A-431 cells assessed as reduction in cell viability incubated for 72 hrs by MTT assay; format: functional, cell-based; details: A-431, 72 h
HCT-8 [4] = experiment: Antiproliferative activity against human HCT-8 cells assessed as reduction in cell viability incubated for 72 hrs by MTT assay; format: functional, cell-based; details: Homo sapiens, HCT-8, 72 h; read-out: IC50
H22 [5] = experiment: Antiproliferative activity against mouse H22 cells assessed as reduction in cell viability incubated for 72 hrs by MTT assay; format: functional, cell-based; details: H22, 72 h
L02 = experiment: Cytotoxicity against human L02 cells assessed as reduction in cell viability incubated for 72 hrs by MTT assay; format: cell-based; details: L02, 72 h
Bel-7402 = experiment: Antiproliferative activity against ADR-resistant human Bel-7402 cells assessed as reduction in cell viability incubated for 72 hrs by MTT assay; format: functional, cell-based; details: Homo sapiens, Bel-7402, 72 h; read-out: IC50
[6] = Resistant index, ratio of IC50 for ADR-resistant human Bel-7402 cells to IC50 for human Bel-7402 cells; format: functional
HCT-8 [7] = experiment: Antiproliferative activity against taxol-resistant human HCT-8 cells assessed as reduction in cell viability incubated for 72 hrs by MTT assay; format: functional, cell-based; details: Homo sapiens, HCT-8, 72 h; read-out: IC50
[8] = Resistant index, ratio of IC50 for VCR resistant human K562 cells to IC50 for human K562 cells; format: functional
[9] = n-Octanol/water partition coefficient, logD of the compound incubated for 24 hrs at pH 7.4 by HPLC analysis; format: physicochemical
A-431 [10] = experiment: Anti-microtubule activity in human A-431 cells assessed as loss of cellular structure at 7.5 to 30 nM incubated for 24 hrs by DAPI staining based confocal microscopic analysis; format: functional, cell-based; details: dose 7.5-30 nM
A-431 [11] = experiment: Induction of cell cycle arrest in human A-431 cells assessed as accumulation at G1 phase at 7.5 nM after 48 hrs by propidium iodide staining based flow cytometry (reference value: 41.16%); format: functional
A-431 [12] = experiment: Induction of cell cycle arrest in human A-431 cells assessed as accumulation at G2 phase at 7.5 nM after 48 hrs by propidium iodide staining based flow cytometry (reference value: 7.27%); format: functional
A-431 [13] = experiment: Induction of cell cycle arrest in human A-431 cells assessed as accumulation at S phase at 15 nM after 48 hrs by propidium iodide staining based flow cytometry (reference value: 46.57%); format: functional
A-431 [14] = experiment: Induction of cell cycle arrest in human A-431 cells assessed as accumulation at S phase at 30 nM after 48 hrs by propidium iodide staining based flow cytometry (reference value: 46.57%); format: functional
A-431 [15] = experiment: Cell cycle arrest in human A-431 cells assessed as downregulation of cdc2 expression by Western blot analysis; format: functional, cell-based; details: dose 7.5-30 nM
A-431 [16] = experiment: Cell cycle arrest in human A-431 cells assessed as downregulation of p-histone H3 expression by Western blot analysis; format: functional, cell-based; details: dose 7.5-30 nM
A-431 [17] = experiment: Induction of apoptosis in human A-431 cells assessed as late apoptotic cells at 7.5 nM after 48 hrs by Annexin-V-APC/PI-staining based flow cytometric analysis (reference value: 2.02%); format: functional
A-431 [18] = experiment: Induction of apoptosis in human A-431 cells assessed as necrotic cells at 7.5 nM after 48 hrs by Annexin-V-APC/PI-staining based flow cytometric analysis (reference value: 3.79%); format: functional
A-431 [19] = experiment: Induction of apoptosis in human A-431 cells assessed as viable cells at 15 nM after 48 hrs by Annexin-V-APC/PI-staining based flow cytometric analysis (reference value: 93.37%); format: functional; details: read-out: Activity
A-431 [20] = experiment: Induction of apoptosis in human A-431 cells assessed as late apoptotic cells at 15 nM after 48 hrs by Annexin-V-APC/PI-staining based flow cytometric analysis (reference value: 2.02%); format: functional
A-431 [21] = experiment: Induction of apoptosis in human A-431 cells assessed as early apoptotic cells at 30 nM after 48 hrs by Annexin-V-APC/PI-staining based flow cytometric analysis (reference value: 0.82%); format: functional
A-431 [22] = experiment: Induction of apoptosis in human A-431 cells assessed as necrotic cells at 30 nM after 48 hrs by Annexin-V-APC/PI-staining based flow cytometric analysis (reference value: 3.79%); format: functional
A-431 [23] = experiment: Induction of apoptosis in human A-431 cells assessed as upregulation of Bax protein expression by western blot analysis; format: functional, cell-based; details: dose 7.5-30 nM
A-431 [24] = experiment: Induction of apoptosis in human A-431 cells assessed as downregulation of Bcl2 protein expression by western blot analysis; format: functional, cell-based; details: dose 7.5-30 nM
A-431 [25] = experiment: Induction of apoptosis in human A-431 cells assessed as activation of caspase 3 by western blot analysis; format: functional, cell-based; details: dose 7.5-30 nM
A-431 [26] = experiment: Induction of apoptosis in human A-431 cells assessed as activation of caspase 9 at 7.5 to 30 nM by western blot analysis; format: functional, cell-based; details: dose 7.5-30 nM
A-431 [27] = experiment: Induction of apoptosis in human A-431 cells assessed as increase in cleaved PARP expression at 7.5 to 30 nM by western blot analysis; format: functional, cell-based; details: dose 7.5-30 nM
[28] = Induction of mitochondria membrane potential loss in human A-431 cells assessed as red fluorescence intensity at 30 nM incubated for 48 hrs by JC-1 probe based flow cytometry analysis (reference value: 93.83%); format: functional
[29] = Induction of mitochondria membrane potential loss in human A-431 cells assessed as green fluorescence intensity at 30 nM incubated for 48 hrs by JC-1 probe based flow cytometry analysis (reference value: 5.98%); format: functional
[30] = Metabolic stability in rat plasma assessed as parent compound remaining at 100 nM measured after 3 hrs by HPLC analysis; format: ADME, cell-free; details: read-out: Stabilty
HUVEC [31] = experiment: Antivascular activity in HUVEC assessed as inhibition of capillary like tube formation at 30 nM incubated for 6 hrs by matrigel based inverted fluorescence microscopic analysis; format: functional, cell-based; details: Homo sapiens
A-431 [32] = experiment: Induction of ROS generation in human A-431 cells at 30 nM incubated for 48 hrs by DCFH-DA dye based fluorescence microscopy (reference value: 6.17%); format: functional
H22 [33] = experiment: Antitumor activity against […] xenografted in ICR mouse assessed as reduction in tumor growth at 20 mg/kg/day, iv for 21 days; format: functional, organism-based; details: time 21.0 day
HUVEC [34] = experiment: Antivascular activity in HUVEC assessed as inhibition of migration activity at 30 nM measured after 24 hrs by wound healing based phase contrast microscopic analysis; format: functional, cell-based; details: Homo sapiens
HUVEC [35] = experiment: Cytotoxicity against HUVEC incubated for 6 hrs by inverted microscopic analysis; format: cell-based; details: Homo sapiens
K562 = experiment: cells; details: Homo sapiens, K562, 72 h
Description: Antiproliferative activity against human K562 cells assessed as reduction in cell viability incubated for 72 hrs by MTT assay

A-431 [36] = experiment: Induction of ROS generation in human A-431 cells incubated for 48 hrs by DCFH-DA dye based flow cytometry; details: dose 7.5-30 nM

Question: For COc1ccc(CNC(=O)c2cc(F)ccc2N2CCOCC2)cc1O, which Activity (A-431 [1]) is on record?
Answer: Active

Question: And the Activity [2]?
Answer: 45.4%

Question: And the IC50 (A-431 [3])?
Answer: 14 nM

Question: What about the IC50 (HCT-8 [4]) of the same compound?
Answer: 20 nM

Question: And the IC50 (H22 [5])?
Answer: 24 nM

Question: What about the IC50 (L02) of the same compound?
Answer: 112 nM

Question: And the IC50 (Bel-7402)?
Answer: 104 nM

Question: What about the “Ratio IC50” value [6] of the same compound?
Answer: 3.9

Question: What about the IC50 (HCT-8 [7]) of the same compound?
Answer: 106 nM

Question: What about the “Ratio IC50” value [8] of the same compound?
Answer: 10.8

Question: What about the logD at 24 h [9] of the same compound?
Answer: 1.61

Question: And the Activity (A-431 [10])?
Answer: Active

Question: What about the Activity (A-431 [11]) of the same compound?
Answer: 46.14%

Question: What about the Activity (A-431 [12]) of the same compound?
Answer: 13.84%

Question: And the Activity (A-431 [13])?
Answer: 22.59%

Question: What about the Activity (A-431 [14]) of the same compound?
Answer: 18.54%

Question: What about the Activity (A-431 [15]) of the same compound?
Answer: Dose-Dependent Effect

Question: And the Activity (A-431 [16])?
Answer: Dose-Dependent Effect

Question: And the Activity (A-431 [17])?
Answer: 9.21%

Question: What about the Activity (A-431 [18]) of the same compound?
Answer: 8.23%

Question: And the viability at 0.015 µM (A-431 [19])?
Answer: 45.4%

Question: What about the Activity (A-431 [20]) of the same compound?
Answer: 26.43%

Question: What about the Activity (A-431 [21]) of the same compound?
Answer: 34.02%

Question: What about the Activity (A-431 [22]) of the same compound?
Answer: 7.35%

Question: What about the Activity (A-431 [23]) of the same compound?
Answer: Dose-Dependent Effect

Question: And the Activity (A-431 [24])?
Answer: Dose-Dependent Effect

Question: And the Activity (A-431 [25])?
Answer: Dose-Dependent Effect

Question: What about the Activity (A-431 [26]) of the same compound?
Answer: Active

Question: What about the Activity (A-431 [27]) of the same compound?
Answer: Active

Question: And the Activity [28]?
Answer: 33.88%

Question: And the Activity [29]?
Answer: 65.96%

Question: And the remaining at 3 h, 0.1 µM [30]?
Answer: 91.5%

Question: What about the Activity (HUVEC [31]) of the same compound?
Answer: Active

Question: And the Activity (A-431 [32])?
Answer: 21.99%

Question: And the Activity (H22 [33])?
Answer: Active

Question: And the Activity (HUVEC [34])?
Answer: Active

Question: What about the IC50 (HUVEC [35]) of the same compound?
Answer: 120 nM

Question: What about the IC50 (K562) of the same compound?
Answer: 19 nM

Question: What about the Activity (A-431 [36]) of the same compound?
Answer: Dose-Dependent Effect

From ChEMBL document CHEMBL4813973, “Discovery of novel N-benzylbenzamide derivatives as tubulin polymerization inhibitors with potent antitumor activities” (Eur J Med Chem, 2021)
